Test results: ChEMBL document CHEMBL4428084, “Discovery and Optimization of N-(4-(3-Aminophenyl)thiazol-2-yl)acetamide as a Novel Scaffold Active against Sensitive and Resistant Cancer Cells” (J Med Chem, 2016)
The source made the active and inactive calls. The calls are words filed in the database; no cut-off is given here.

Tests used:
A-375 [1] = test: Induction of autophagy in human A375 cells xenografted in immuno-deficient nude Balb/c mouse assessed as increase in LC3-2 expression in tumor at 0.7 mg/kg/day, ip measured on day 31 post treatment by Western blot analysis; format: functional, organism-based
[2] = Toxicity in nude Balb/c mouse xenografted with human A375 cells assessed as effect on body mass at 0.7 mg/kg/day, ip; format: organism-based; settings: in vivo
A-375 [3] = test: Inhibition of colony formation in human A375 cells at 5 uM after 10 days by crystal violet staining based assay relative to control; format: functional; settings: A-375, 240 h
A-375 [4] = test: Induction of apoptosis in human A375 cells xenografted in immuno-deficient nude Balb/c mouse assessed as increase in cleaved PARP expression in tumor at 0.7 mg/kg/day, ip measured on day 31 post treatment by Western blot analysis; format: functional, organism-based
A-375 [5] = test: Cytotoxicity against vemurafenib-sensitive human A375 cells assessed as reduction in cell viability after 48 hrs by trypan blue exclusion assay; format: functional, cell-based; settings: A-375, 48 h
[6] = Cytotoxicity against vemurafenib-resistant human A375 RIV cells assessed as cell viability at 1 uM after 48 hrs by trypan blue exclusion assay relative to control; format: functional; settings: A-375, 48 h, read-out: Activity
A-375 [7] = test: Induction of apoptosis in human A375 cells assessed as increase in cleaved PARP expression at 10 uM after 48 hrs in presence of pan-caspase inhibitor QVD by Western blot analysis; format: functional, cell-based
K562 [8] = test: Cytotoxicity against imatinib-resistant human K562 cells assessed as cell viability at 10 uM after 48 hrs by trypan blue exclusion assay relative to control; format: functional; settings: K562, 48 h, read-out: Activity
A-375 [9] = test: Induction of apoptosis in human A375 cells assessed as increase in cleaved PARP expression at 10 uM after 24 hrs by Western blot analysis; format: functional, cell-based
A-375 [10] = test: Induction of apoptosis in human A375 cells assessed as cells with active caspase-3 at 10 uM after 48 hrs by flow cytometry (reference value: 4.16%); format: functional
K562 [11] = test: Cytotoxicity against imatinib-sensitive human K562 cells assessed as cell viability at 10 uM after 48 hrs by trypan blue exclusion assay relative to control; format: functional; settings: K562, 48 h, read-out: Activity
A-375 [12] = test: Induction of autophagy in human A375 cells assessed as increase in LC3-2 expression at 10 uM after 12 hrs by Hoechst staining based immunofluorescence method; format: functional, cell-based
[13] = Cytotoxicity against vemurafenib-resistant human A375 RIV cells assessed as reduction in cell viability after 48 hrs by trypan blue exclusion assay; format: functional, cell-based; settings: A-375, 48 h
[14] = Cytotoxicity against human keratinocytes assessed as cell viability at 10 uM after 48 hrs by trypan blue exclusion assay relative to control; format: cell-based, Keratinocyte; settings: read-out: Activity
A-375 [15] = test: Induction of autophagy in human A375 cells assessed as increase in LC3-1 to LC3-2 conversion at 10 uM after 24 hrs by Western blot analysis; format: functional, cell-based
[16] = Cytotoxicity against vemurafenib-resistant human A375 R5C3 cells assessed as cell viability at 1 uM after 48 hrs by trypan blue exclusion assay relative to control; format: functional; settings: A-375, 48 h, read-out: Activity
A-375 [17] = test: Cytotoxicity against vemurafenib-sensitive human A375 cells assessed as cell viability at 5 uM after 48 hrs by trypan blue exclusion assay relative to control; format: functional; settings: A-375, 48 h, read-out: Activity
A-375 [18] = test: Antitumor activity against human A375 cells xenografted in immuno-deficient nude Balb/c mouse assessed as tumor growth inhibition at 0.7 mg/kg/day, ip measured on day 31 post treatment; format: functional, organism-based
MIA PaCa-2 [19] = test: Cytotoxicity against gemcitabine-resistant human MIAPaCa2 cells assessed as cell viability at 10 uM after 48 hrs by trypan blue exclusion assay relative to control; format: functional; settings: MIA PaCa-2, 48 h, read-out: Activity
A-375 [20] = test: Induction of autophagy in human A375 cells assessed as increase in LC3B-2 expression at 10 uM after 48 hrs in presence of LC3 siRNA by Western blot analysis; format: functional, cell-based
[21] = Total clearance in mouse at 1 mg/kg, iv measured 2 hrs post dose; format: ADME, organism-based; settings: in vivo
K562 [22] = test: Cytotoxicity against imatinib-resistant human K562 cells assessed as reduction in cell viability after 48 hrs by trypan blue exclusion assay; format: functional, cell-based; settings: K562, 48 h
[23] = Cytotoxicity against vemurafenib-resistant human A375 RIV cells assessed as cell viability at 10 uM after 48 hrs by trypan blue exclusion assay relative to control; format: functional; settings: A-375, 48 h, read-out: Activity
A-375 [24] = test: Cytotoxicity against vemurafenib-sensitive human A375 cells assessed as cell viability at 10 uM after 48 hrs by trypan blue exclusion assay relative to control; format: functional; settings: A-375, 48 h, read-out: Activity
[25] = Toxicity in mouse assessed as behavioral modification at 1 mg/kg, iv; format: organism-based; settings: in vivo
[26] = Cytotoxicity against human fibroblasts assessed as cell viability at 10 uM after 48 hrs by trypan blue exclusion assay relative to control; format: cell-based, Fibroblast; settings: read-out: Activity
A-375 [27] = test: Inhibition of colony formation in human A375 cells after 10 days by crystal violet staining based assay; format: functional, cell-based
[28] = Cytotoxicity against human fibroblasts assessed as cell viability at 5 uM after 48 hrs by trypan blue exclusion assay relative to control; format: cell-based, Fibroblast; settings: read-out: Activity
[29] = Volume of distribution in mouse at 1 mg/kg, iv measured 2 hrs post dose; format: ADME, organism-based; settings: in vivo
[30] = AUC (0 to 2 hrs) in mouse at 1 mg/kg, iv; format: ADME, organism-based; design: dose 1 mg/kg, time < 2 hr, route intravenous; settings: in vivo
MIA PaCa-2 [31] = test: Cytotoxicity against gemcitabine-resistant human MIAPaCa2 cells assessed as reduction in cell viability after 48 hrs by trypan blue exclusion assay; format: functional, cell-based; settings: MIA PaCa-2, 48 h
[32] = Half life in mouse liver microsomes at 37 degC; format: ADME, Microsome
[33] = Cytotoxicity against vemurafenib-resistant human A375 RIV cells assessed as cell viability at 5 uM after 48 hrs by trypan blue exclusion assay relative to control; format: functional; settings: A-375, 48 h, read-out: Activity
[34] = Cytotoxicity against human keratinocytes assessed as cell viability at 5 uM after 48 hrs by trypan blue exclusion assay relative to control; format: cell-based, Keratinocyte; settings: read-out: Activity
A-375 [35] = test: Inhibition of colony formation in human A375 cells assessed as induction of less dense colony level at 5 and 10 uM after 10 days by crystal violet staining based assay relative to control; format: functional, cell-based
[36] = Cytotoxicity against vemurafenib-resistant human A375 R5C3 cells assessed as cell viability at 10 uM after 48 hrs by trypan blue exclusion assay relative to control; format: functional; settings: A-375, 48 h, read-out: Activity
BXPC-3 [37] = test: Cytotoxicity against gemcitabine-sensitive human BxPC3 cells assessed as reduction in cell viability after 48 hrs by trypan blue exclusion assay; format: functional, cell-based; settings: BXPC-3, 48 h
BXPC-3 [38] = test: Cytotoxicity against gemcitabine-sensitive human BxPC3 cells assessed as cell viability at 10 uM after 48 hrs by trypan blue exclusion assay relative to control; format: functional; settings: BXPC-3, 48 h, read-out: Activity
[39] = Cytotoxicity against vemurafenib-resistant human A375 R5C3 cells assessed as reduction in cell viability after 48 hrs by trypan blue exclusion assay; format: functional, cell-based; settings: A-375, 48 h
[40] = Toxicity in nude Balb/c mouse xenografted with human A375 cells assessed as behavioral modification at 0.7 mg/kg/day, ip; format: organism-based; settings: in vivo
K562 [41] = test: Cytotoxicity against imatinib-sensitive human K562 cells assessed as reduction in cell viability after 48 hrs by trypan blue exclusion assay; format: functional, cell-based; settings: K562, 48 h
A-375 [42] = test: Cytotoxicity against human A375 cells assessed as reduction in cell viability at 10 uM after 48 hrs in presence of pan-caspase inhibitor QVD/LC3 siRNA by trypan blue exclusion assay; format: functional, cell-based
[43] = Terminal half life in mouse at 1 mg/kg, iv; format: ADME, organism-based; settings: in vivo, read-out: beta t1/2
A-375 [44] = test: Inhibition of colony formation in human A375 cells at 10 uM after 10 days by crystal violet staining based assay relative to control; format: functional; settings: A-375, 240 h
[45] = Toxicity in nude Balb/c mouse xenografted with human A375 cells assessed as diet disturbance at 0.7 mg/kg/day, ip; format: organism-based; settings: in vivo

- clearance [21]: 2.58 L/h/kg
- Vd [29]: 2.91 L/kg
- AUC(0-t) at 2 h [30]: 0.389 µg·h/mL
- half-life [32]: > 45 min
- half-life [43]: 47 min
SMILES: CCCCCCC#Cc1ccc(S(=O)(=O)Nc2cccc(-c3csc(NC(C)=O)n3)c2)cc1
- Activity (A-375 [1]): Active
- Activity [2]: Non-Toxic
- inhibition at 5 µM (A-375 [3]): 77%
- Activity (A-375 [4]): Active
- EC50 (A-375 [5]): 0.56 µM
- viability at 1 µM [6]: 12%
- Activity (A-375 [7]): inactive
- viability at 10 µM (K562 [8]): 3.4%
- Activity (A-375 [9]): Active
- Activity (A-375 [10]): 48 - 48.4%
- viability at 10 µM (K562 [11]): 0.6%
- Activity (A-375 [12]): Active
- EC50 [13]: 0.48 µM
- viability at 48 h, 10 µM [14]: 93.4%
- Activity (A-375 [15]): Active
- viability at 1 µM [16]: 83%
- viability at 5 µM (A-375 [17]): < 1%
- TGI (A-375 [18]): Active
- viability at 10 µM (MIA PaCa-2 [19]): < 1%
- Activity (A-375 [20]): inactive
- EC50 (K562 [22]): 1.62 µM
- viability at 10 µM [23]: < 1%
- viability at 10 µM (A-375 [24]): < 1%
- Activity [25]: Non-Toxic
- viability at 48 h, 10 µM [26]: 85.1%
- inhibition (A-375 [27]): Dose-dependent effect
- viability at 48 h, 5 µM [28]: 91.5%
- EC50 (MIA PaCa-2 [31]): 0.64 µM
- viability at 5 µM [33]: 0.3%
- viability at 48 h, 5 µM [34]: 91.2%
- inhibition (A-375 [35]): Active
- viability at 10 µM [36]: < 1%
- EC50 (BXPC-3 [37]): 0.38 µM
- viability at 10 µM (BXPC-3 [38]): < 1%
- EC50 [39]: 1.32 µM
- Activity [40]: Non-Toxic
- EC50 (K562 [41]): 1.42 µM
- Activity (A-375 [42]): inactive
- inhibition at 10 µM (A-375 [44]): 94%
- Activity [45]: Non-Toxic
